Source: US12459951B2, “Compounds that interact with RAS superfamily proteins for treatment of cancers, inflammatory diseases, rasopathies, and fibrotic disease” (SHY Therapeutics, LLC, priority 2022, dated 2025)
Read-outs that look alike come from different tables or passages of the source. Each block holds one compound with its values, some of them ahead of it.

Tests used:
TNF-alpha = TNF-alpha Quantification Assay (ELISA), LPS-stimulated RAW 264.7; assay type: cell-based; settings: Mus musculus, RAW264.7; at 10 μM; read-out: TNFα: % inh.
Akt phosphorylation = test: Akt Phosphorylation Assay (western blot), Panc-1; assay type: cell-based, human; settings: at 10 μM, * = activation
Method in brief: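 Panc-1 (KRas G12D) cells were treated with compound at 10 μM final (0.3% DMSO) for 6 h at 37 °C, or with serial dilutions for IC50. Cells were either serum-starved overnight in 0.5% FBS and then stimulated with 1.5 ng/ml EGF for 15 min, or kept in 10% FBS without stimulation. Akt Ser473 phosphorylation in lysates was read by western blot.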

[1] = system: MiaPaca-2 (expressing KRAS G12C mutant); test: Proliferation Assay (Cell Viability Assay); assay type: cell-based; settings: Homo sapiens, MIA PaCa-2
Method in brief: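 MiaPaca-2 cells (KRAS G12C) were grown in DMEM-high glucose with 10% FBS, seeded at 2000–5000 cells/well and cultured overnight. Compounds were added at 10 μM final, or as serial dilutions for IC50, in 0.3% DMSO/10% FBS for 2–4 days at 37 °C, 5% CO2. Viability was measured with CellTiter 96 Aqueous One and % inhibition calculated.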

IL6 = test: IL-6 Quantification Assay (ELISA), LPS-stimulated RAW 264.7; assay type: cell-based; design: inhibition: dose or concentration left out as unconfirmed; settings: Mus musculus, RAW264.7, read-out: IL-6: % inh.
[2] = read-out: Proliferation in MiaPaca-2: IC50

Structure (SMILES): Cc1c(-c2ccn(C)n2)cn2nc(-c3nccn3C)nc(Nc3cc[nH]n3)c12 [Compound 256, 5-Methyl-2-(1-methyl-1H-imidazol-2-yl)-6-(1-methyl-1H-pyrazol-3-yl)-N-(1H-pyrazol-3-yl)pyrrolo[2,1-f][1,2,4]triazin-4-amine]
- inhibition at 10 µM (TNF-alpha): 0%
- % inh of Akt phosphorylation in Panc-1 (Akt phosphorylation): D* (85-100% activation)
- IC50 [1, 2]: > 1000 nM
- inhibition (IL6): 50 to 74%

Structure (SMILES): Cc1c(-c2ccn(C)n2)cn2nc(-c3nccn3C)nc(Nc3ccc(N4CCOCC4)cn3)c12 [Compound 247, 5-Methyl-2-(1-methyl-1H-imidazol-2-yl)-6-(1-methyl-1H-pyrazol-3-yl)-N-(5-morpholinopyridin-2-yl)pyrrolo[2,1-f][1,2,4]triazin-4-amine]
- inhibition at 10 µM (TNF-alpha): 50 to 74%
- % inh of Akt phosphorylation in Panc-1 (Akt phosphorylation): D* (85-100% activation)
- IC50 [1, 2]: 510 to 1000 nM
- inhibition (IL6): 75 to 100%

Structure (SMILES): COCCNc1nc(-c2nccn2C)nn2cc(-c3ccn(C(C)C)n3)c(C(C)C)c12 [Compound 35, 5-Isopropyl-6-(1-isopropyl-1H-pyrazol-3-yl)-N-(2-methoxyethyl)-2-(1-methyl-1H-imidazol-2-yl)pyrrolo[2,1-f][1,2,4]triazin-4-amine]
- inhibition at 10 µM (TNF-alpha): 0%
- % inh of Akt phosphorylation in Panc-1 (Akt phosphorylation): 0 (0% inhibition)
- IC50 [1, 2]: > 1000 nM
- inhibition (IL6): 25 to 49%

Structure (SMILES): Cc1c(-c2ccn(C)n2)cn2nc(-c3nccn3C)nc(Oc3cc(N)[nH]n3)c12 [Compound 262, 3-((5-Methyl-2-(1-methyl-1H-imidazol-2-yl)-6-(1-methyl-1H-pyrazol-3-yl)pyrrolo[2,1-f][1,2,4]triazin-4-yl)oxy)-1H-pyrazol-5-amine]
- inhibition at 10 µM (TNF-alpha): 0%
- % inh of Akt phosphorylation in Panc-1 (Akt phosphorylation): B (26-49% inhibition)
- IC50 [1, 2]: > 1000 nM
- inhibition (IL6): 1 to 24%

Structure (SMILES): COc1cccc(-c2cn3nc(-c4nccn4C)nc(N[C@H]4C[C@H](OC)C4)c3c2-c2ccccn2)c1F [Compound 45, 6-(2-Fluoro-3-methoxyphenyl)-N-((1r,3r)-3-methoxycyclobutyl)-2-(1-methyl-1H-imidazol-2-yl)-5-(pyridin-2-yl)pyrrolo[2,1-f][1,2,4]triazin-4-amine]
- inhibition at 10 µM (TNF-alpha): 75 to 100%
- % inh of Akt phosphorylation in Panc-1 (Akt phosphorylation): 0 (0% inhibition)
- IC50 [1, 2]: > 1000 nM
- inhibition at 10 µM (IL6; at 10 μM): 75 to 100%

Structure (SMILES): CO[C@H]1CC[C@@H](Nc2nc(-c3ccccn3)nn3cc(-c4ccn(C(C)C)n4)c(-c4ccccc4)c23)C1 (racemic) [Compound 24, rac 6-(1-Isopropyl-1H-pyrazol-3-yl)-N-((1R,3S)-3-methoxycyclopentyl)-5-phenyl-2-(pyridin-2-yl)pyrrolo[2,1-f][1,2,4]triazin-4-amine]
- inhibition at 10 µM (TNF-alpha): 25 to 49%
- % inh of Akt phosphorylation in Panc-1 (Akt phosphorylation): A* (1-25% activation)
- IC50 [1, 2]: > 1000 nM
- inhibition (IL6): 25 to 49%

Structure (SMILES): Cn1ccnc1-c1nc(OCCN2CCCC2)c2c(-c3ccccc3)ccn2n1 [Compound 41, 2-(1-Methyl-1H-imidazol-2-yl)-5-phenyl-4-(2-(pyrrolidin-1-yl)ethoxy)pyrrolo[2,1-f][1,2,4]triazine]
- inhibition at 10 µM (TNF-alpha): 1 to 24%
- % inh of Akt phosphorylation in Panc-1 (Akt phosphorylation): A* (1-25% activation)
- IC50 [1, 2]: > 1000 nM
- inhibition (IL6): 1 to 24%

Structure (SMILES): Cc1c(-c2ccn(C(C)C)n2)cn2nc(-c3nccn3C)nc(Nc3ccn(C)n3)c12 [Compound 61, 6-(1-Isopropyl-1H-pyrazol-3-yl)-5-methyl-2-(1-methyl-1H-imidazol-2-yl)-N-(1-methyl-1H-pyrazol-3-yl)pyrrolo[2,1-f][1,2,4]triazin-4-amine]
- inhibition at 10 µM (TNF-alpha): 1 to 24%
- % inh of Akt phosphorylation in Panc-1 (Akt phosphorylation): C* (46-84% activation)
- IC50 [1, 2]: 510 to 1000 nM
- inhibition (IL6): 1 to 24%

Structure (SMILES): COc1cc(Nc2nc(-c3nccn3C)nn3cc(-c4ccn(C(C)C)n4)c(C)c23)n[nH]1 [Compound 51, 6-(1-Isopropyl-1H-pyrazol-3-yl)-N-(5-methoxy-1H-pyrazol-3-yl)-5-methyl-2-(1-methyl-1H-imidazol-2-yl)pyrrolo[2,1-f][1,2,4]triazin-4-amine]
- inhibition at 10 µM (TNF-alpha): 25 to 49%
- % inh of Akt phosphorylation in Panc-1 (Akt phosphorylation): D* (85-100% activation)
- IC50 [1, 2]: > 1000 nM
- inhibition (IL6): 50 to 74%

Continued, in another order:

- IC50 [1, 2]: 510 to 1000 nM
Structure (SMILES): COc1cc(Nc2nc(-c3nccn3C)nn3cc(-c4ccn(C)n4)c(C)c23)nn1C [Compound 253, N-(5-Methoxy-1-methyl-1H-pyrazol-3-yl)-5-methyl-2-(1-methyl-1H-imidazol-2-yl)-6-(1-methyl-1H-pyrazol-3-yl)pyrrolo[2,1-f][1,2,4]triazin-4-amine]
- inhibition at 10 µM (TNF-alpha): 0%
- % inh of Akt phosphorylation in Panc-1 (Akt phosphorylation): D* (85-100% activation)
- inhibition (IL6): 25 to 49%

- IC50 [1, 2]: < 150 nM
Structure (SMILES): Cc1c(-c2ccn(C)n2)cn2nc(-c3nccn3C)nc(Nc3cc(-n4ccnc4)ccn3)c12 [Compound 245, N-(4-(1H-imidazol-1-yl)pyridin-2-yl)-5-methyl-2-(1-methyl-1H-imidazol-2-yl)-6-(1-methyl-1H-pyrazol-3-yl)pyrrolo[2,1-f][1,2,4]triazin-4-amine]
- inhibition at 10 µM (TNF-alpha): 0%
- % inh of Akt phosphorylation in Panc-1 (Akt phosphorylation): D* (85-100% activation)
- inhibition (IL6): 25 to 49%

- IC50 [1, 2]: < 150 nM
Structure (SMILES): Cc1c(-c2ccn(C)n2)cn2nc(-c3nccn3C)nc(Nc3cc(-c4ccncc4)[nH]n3)c12 [Compound 266, 5-Methyl-2-(1-methyl-1H-imidazol-2-yl)-6-(1-methyl-1H-pyrazol-3-yl)-N-(5-(pyridin-4-yl)-1H-pyrazol-3-yl)pyrrolo[2,1-f][1,2,4]triazin-4-amine]
- inhibition at 10 µM (TNF-alpha): 0%
- % inh of Akt phosphorylation in Panc-1 (Akt phosphorylation): D* (85-100% activation)
- inhibition (IL6): 25 to 49%

- IC50 ([1]; Proliferation assay, MiaPaca-2, read-out: MiaPaca-2 IC50 (nM) Pancreatic): 1 to 10 nM
- IC50 [1, 2]: < 150 nM
Structure (SMILES): Cc1cc(Nc2nc(-c3nccn3C)nn3cc(-c4ccn(C)n4)c(C)c23)n[nH]1 [Compound 255, 5-Methyl-2-(1-methyl-1H-imidazol-2-yl)-6-(1-methyl-1H-pyrazol-3-yl)-N-(5-methyl-1H-pyrazol-3-yl)pyrrolo[2,1-f][1,2,4]triazin-4-amine]
- inhibition at 10 µM (TNF-alpha): 1 to 24%
- % inh of Akt phosphorylation in Panc-1 (Akt phosphorylation): D* (85-100% activation)
- inhibition (IL6): 50 to 74%

- IC50 [1, 2]: < 150 nM
Structure (SMILES): Cc1c(-c2ccn(C)n2)cn2nc(-c3nccn3C)nc(Nc3cc(C(C)C)[nH]n3)c12 [Compound 268, N-(5-Isopropyl-1H-pyrazol-3-yl)-5-methyl-2-(1-methyl-1H-imidazol-2-yl)-6-(1-methyl-1H-pyrazol-3-yl)pyrrolo[2,1-f][1,2,4]triazin-4-amine]
- inhibition at 10 µM (TNF-alpha): 25 to 49%
- % inh of Akt phosphorylation in Panc-1 (Akt phosphorylation): D* (85-100% activation)
- inhibition (IL6): 75 to 100%

- IC50 [1, 2]: < 150 nM
Structure (SMILES): Cc1c(-c2ccn(C(C)C)n2)cn2nc(-c3nccn3C)nc(Nc3ncccn3)c12 [Compound 54, 6-(1-Isopropyl-1H-pyrazol-3-yl)-5-methyl-2-(1-methyl-1H-imidazol-2-yl)-N-(pyrimidin-2-yl)pyrrolo[2,1-f][1,2,4]triazin-4-amine]
- inhibition at 10 µM (TNF-alpha): 1 to 24%
- % inh of Akt phosphorylation in Panc-1 (Akt phosphorylation): B* (26-49% activation)
- inhibition (IL6): 25 to 49%

- IC50 [1, 2]: 150 to 500 nM
Structure (SMILES): Cc1c(-c2ccn(C)n2)cn2nc(-c3nccn3C)nc(Nc3cc(C4CCC4)[nH]n3)c12 [Compound 257, N-(5-Cyclobutyl-1H-pyrazol-3-yl)-5-methyl-2-(1-methyl-1H-imidazol-2-yl)-6-(1-methyl-1H-pyrazol-3-yl)pyrrolo[2,1-f][1,2,4]triazin-4-amine]
- inhibition at 10 µM (TNF-alpha): 25 to 49%
- % inh of Akt phosphorylation in Panc-1 (Akt phosphorylation): D* (85-100% activation)
- inhibition (IL6): 75 to 100%

- IC50 [1, 2]: < 150 nM
Structure (SMILES): COc1ccnc(Nc2nc(-c3nccn3C)nn3cc(-c4ccn(C(C)C)n4)c(C)c23)n1 [Compound 53, 6-(1-Isopropyl-1H-pyrazol-3-yl)-N-(4-methoxypyrimidin-2-yl)-5-methyl-2-(1-methyl-1H-imidazol-2-yl)pyrrolo[2,1-f][1,2,4]triazin-4-amine]
- inhibition at 10 µM (TNF-alpha): 1 to 24%
- % inh of Akt phosphorylation in Panc-1 (Akt phosphorylation): A* (1-25% activation)
- inhibition (IL6): 50 to 74%

- IC50 [1, 2]: < 150 nM
Structure (SMILES): CCn1ccc(-c2cn3nc(-c4nccn4C)nc(Nc4cc(OC)ncn4)c3c2C)n1 [Compound 64, 6-(1-Ethyl-1H-pyrazol-3-yl)-N-(6-methoxypyrimidin-4-yl)-5-methyl-2-(1-methyl-1H-imidazol-2-yl)pyrrolo[2,1-f][1,2,4]triazin-4-amine]
- inhibition at 10 µM (TNF-alpha): 0%
- % inh of Akt phosphorylation in Panc-1 (Akt phosphorylation): D* (85-100% activation)
- inhibition (IL6): 1 to 24%

- IC50 [1, 2]: < 150 nM
Structure (SMILES): COc1cc(Nc2nc(-c3nccn3C)nn3cc(-c4ccncc4)c(C)c23)ncn1 [Compound 49, N-(6-Methoxypyrimidin-4-yl)-5-methyl-2-(1-methyl-1H-imidazol-2-yl)-6-(pyridin-4-yl)pyrrolo[2,1-f][1,2,4]triazin-4-amine]
- inhibition at 10 µM (TNF-alpha): 1 to 24%
- % inh of Akt phosphorylation in Panc-1 (Akt phosphorylation): D* (85-100% activation)
- inhibition (IL6): 1 to 24%

- IC50 [1, 2]: 150 to 500 nM
Structure (SMILES): COc1cccc(-c2cn3nc(-c4nccn4C)nc(N[C@H]4C[C@H](OC)C4)c3c2-c2ccccn2)c1C [Compound 274, 6-(3-Methoxy-2-methylphenyl)-N-((1r,3r)-3-methoxycyclobutyl)-2-(1-methyl-1H-imidazol-2-yl)-5-(pyridin-2-yl)pyrrolo[2,1-f][1,2,4]triazin-4-amine]
- inhibition at 10 µM (TNF-alpha): 75 to 100%
- % inh of Akt phosphorylation in Panc-1 (Akt phosphorylation): D (85-100% inhibition)
- inhibition (IL6): 75 to 100%
